Our source for the IC50 values is US9765092B2, “Tricyclic piperidine compounds” (ACTELION PHARMACEUTICALS LTD, priority 2013, dated 2017).

This test addresses human TPH1 (Homo sapiens (Human), UniProt P17752). Briefly: Biochemical in vitro assay using fluorescence readout (TPH1 inhibition).
The mark [1] stands for this setting: human TPH1, fluorescence readout.
Where [2] appears, read: full length human TPH1, 40 μM L-tryptophan, 15° C., 60 minutes, fluorescence at 540 nm, mean if determined several times.

Like-named read-outs stand apart in the source and are kept apart here.

Sequence of human TPH1 (P17752 whole entry): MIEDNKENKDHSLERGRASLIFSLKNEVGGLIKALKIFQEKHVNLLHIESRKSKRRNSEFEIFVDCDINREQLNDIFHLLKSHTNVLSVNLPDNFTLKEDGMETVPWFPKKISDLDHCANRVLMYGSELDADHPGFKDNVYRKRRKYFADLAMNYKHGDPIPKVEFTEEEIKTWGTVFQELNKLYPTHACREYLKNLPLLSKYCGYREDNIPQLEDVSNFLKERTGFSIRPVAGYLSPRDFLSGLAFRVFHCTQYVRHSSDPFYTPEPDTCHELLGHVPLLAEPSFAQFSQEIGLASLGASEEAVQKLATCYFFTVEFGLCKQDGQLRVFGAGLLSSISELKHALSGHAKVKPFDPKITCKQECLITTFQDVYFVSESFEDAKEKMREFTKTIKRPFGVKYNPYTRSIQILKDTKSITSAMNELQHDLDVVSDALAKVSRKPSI

What is called IC50 is the concentration at which inhibition is half-maximal. Under setting [1], `CCc1ncccc1OCC(=O)N1CCc2nc3sc(C)nn3c2C1c1cnc(N2CCOCC2)s1` (stereo not drawn) [Example 1.7.1, 2-((2-ethylpyridin-3-yl)oxy)-1-(2-methyl-5-(2-morpholinothiazol-5-yl)-7,8-dihydro-[1,3,4]thiadiazolo[2′,3′:2,3]imidazo[4,5-c]pyridin-6(5H)-yl)ethanone] came in with an IC50 of 337 nM. Still for that read-out and setting: the value for `CCc1nc(N2CCCS2(=O)=O)ccc1OCC(=O)N1CCc2nc3sc(CF)nn3c2C1c1ccc(Cl)cc1F` (stereo not drawn) [Example 7.1.3, 1-(5-(4-chloro-2-fluorophenyl)-2-(fluoromethyl)-7,8-dihydro-[1,3,4]thiadiazolo[2′,3′:2,3]imidazo[4,5-c]pyridin-6(5H)-yl)-2-((6-(1,1-dioxidoisothiazolidin-2-yl)-2-ethylpyridin-3-yl)oxy)ethan-1-one] was 6 nM; that for `COC(C)(C)c1ccc(C2c3c(nc4sc(C)nn34)CCN2C(=O)COc2ccc(NS(C)(=O)=O)nc2Cl)c(F)c1` (stereo not drawn) [Example 1.81.2, N-(6-chloro-5-(2-(5-(2-fluoro-4-(2-methoxypropan-2-yl)phenyl)-2-methyl-7,8-dihydro-[1,3,4]thiadiazolo[2′,3′:2,3]imidazo[4,5-c]pyridin-6(5H)-yl)-2-oxoethoxy)pyridin-2-yl)methanesulfonamide] was 132 nM.

Turning to `Cc1ccc(C2c3c(nc4sc(C)nn34)CCN2C(=O)COc2ccc(NS(C)(=O)=O)nc2Cl)c(F)c1` (stereo not drawn) [Example 1.53.2, N-(6-chloro-5-(2-(5-(2-fluoro-4-methylphenyl)-2-methyl-7,8-dihydro-[1,3,4]thiadiazolo[2′,3′:2,3]imidazo[4,5-c]pyridin-6(5H)-yl)-2-oxoethoxy)pyridin-2-yl)methanesulfonamide], the IC50 amounted to 12 nM.

With `Cc1nn2c3c(nc2s1)CCN(C(=O)COc1ccc(C(F)(F)F)nc1Cl)C3c1ccc(Cl)nc1F` (stereo not drawn) [Example 1.16.4, 1-(5-(6-chloro-2-fluoropyridin-3-yl)-2-methyl-7,8-dihydro-[1,3,4]thiadiazolo[2′,3′:2,3]imidazo[4,5-c]pyridin-6(5H)-yl)-2-((2-chloro-6-(trifluoromethyl)pyridin-3-yl)oxy)ethanone], the IC50 under setting [1] came out at 27 nM. `Cn1nc(OCC(=O)N2CCc3nc4sccn4c3C2c2cccnc2F)c(C(F)(F)F)c1Cl` (stereo not drawn) [Example 6.2.6, 2-((5-chloro-1-methyl-4-(trifluoromethyl)-1H-pyrazol-3-yl)oxy)-1-(5-(2-fluoropyridin-3-yl)-7,8-dihydrothiazolo[2′,3′:2,3]imidazo[4,5-c]pyridin-6(5H)-yl)ethanone]: the IC50 under setting [1] turned out to be 419 nM. Under setting [1], `Cc1nn2c3c(nc2s1)CCN(C(=O)COc1ccc(F)cc1F)C3c1ccc(C2CC2)cc1F` (stereo not drawn) [Example 1.6.1, 1-(5-(4-cyclopropyl-2-fluorophenyl)-2-methyl-7,8-dihydro-[1,3,4]thiadiazolo[2′,3′:2,3]imidazo[4,5-c]pyridin-6(5H)-yl)-2-(2,4-difluorophenoxy)ethanone] returned an IC50 of 13 nM.

Consider `Cc1nn2c3c(nc2s1)CCN(C(=O)COc1ccc(N2CCOCC2)nc1Cl)C3c1nc(C(N)=O)cs1` (stereo not drawn) [Example 1.48.1, 2-(6-(2-((2-Chloro-6-morpholinopyridin-3-yl)oxy)acetyl)-2-methyl-5,6,7,8-tetrahydro-[1,3,4]thiadiazolo[2′,3′:2,3]imidazo[4,5-c]pyridin-5-yl)thiazole-4-carboxamide], for which the IC50 under setting [2] stood at 5 nM. In turn, `Cc1nn2c3c(nc2s1)CCN(C(=O)COc1ccc(-c2ncco2)nc1Cl)C3c1ccc(C2CC2)cc1F` (stereo not drawn) [Example 1.6.29, 2-((2-chloro-6-(oxazol-2-yl)pyridin-3-yl)oxy)-1-(5-(4-cyclopropyl-2-fluorophenyl)-2-methyl-7,8-dihydro-[1,3,4]thiadiazolo[2′,3′:2,3]imidazo[4,5-c]pyridin-6(5H)-yl)ethanone] registered an IC50 under setting [1] of 17 nM. This lies in the double-digit nanomolar range.

In turn, `Cc1nn2c3c(nc2s1)CCN(C(=O)COc1ccc(N2CCOCC2)nc1Cl)C3c1nc(C(=O)N(C)C)co1` (stereo not drawn) [Example 1.43.1, 2-(6-(2-((2-Chloro-6-morpholinopyridin-3-yl)oxy)acetyl)-2-methyl-5,6,7,8-tetrahydro-[1,3,4]thiadiazolo[2′,3′:2,3]imidazo[4,5-c]pyridin-5-yl)-N,N-dimethyloxazole-4-carboxamide] gave an IC50 under setting [2] of 26 nM. In the case of `CCc1nc(Cl)ncc1OCC(=O)N1CCc2nc3sc(C)nn3c2C1c1ccc(C)c(F)c1F` (stereo not drawn) [Example 1.61.4, 2-((2-chloro-4-ethylpyrimidin-5-yl)oxy)-1-(5-(2,3-difluoro-4-methylphenyl)-2-methyl-7,8-dihydro-[1,3,4]thiadiazolo[2′,3′:2,3]imidazo[4,5-c]pyridin-6(5H)-yl)ethanone], under setting [1], the IC50 amounted to 49 nM. This lies in the double-digit nanomolar range. `Cc1nn2c3c(nc2s1)CCN(C(=O)COc1ccc(C(F)(F)F)nc1)C3c1ccc(C2CC2)cc1F` (stereo not drawn) [Example 1.6.4, 1-(5-(4-cyclopropyl-2-fluorophenyl)-2-methyl-7,8-dihydro-[1,3,4]thiadiazolo[2′,3′:2,3]imidazo[4,5-c]pyridin-6(5H)-yl)-2-((6-(trifluoromethyl)pyridin-3-yl)oxy)ethanone] returned an IC50 under setting [1] of 68 nM. The IC50 values of the last two molecules are within 1.5-fold of each other.

As to `Cc1nn2c3c(nc2s1)CCN(C(=O)COc1ccc(C(F)(F)F)nc1Cl)C3c1cnc(N(C)C)s1` (stereo not drawn) [Example 1.22.3, 2-((2-Chloro-6-(trifluoromethyl)pyridin-3-yl)oxy)-1-(5-(2-(dimethylamino)thiazol-5-yl)-2-methyl-7,8-dihydro-[1,3,4]thiadiazolo[2′,3′:2,3]imidazo[4,5-c]pyridin-6(5H)-yl)ethanone], under setting [2], the IC50 is 136 nM. Under setting [1], `CCc1nn2c3c(nc2s1)CCN(C(=O)COc1ccc(C#N)cc1Cl)C3c1ccc(Cl)cc1F` (stereo not drawn) [Example 3.1.2, 3-chloro-4-(2-(5-(4-chloro-2-fluorophenyl)-2-ethyl-7,8-dihydro-[1,3,4]thiadiazolo[2′,3′:2,3]imidazo[4,5-c]pyridin-6(5H)-yl)-2-oxoethoxy)benzonitrile] returned an IC50 of 15 nM. `CCc1cc(F)ccc1OCC(=O)N1CCc2nc3sccn3c2C1c1ccc(C)cc1F` (stereo not drawn) [Example 6.10.4, 2-(2-ethyl-4-fluorophenoxy)-1-(5-(2-fluoro-4-methyl-phenyl)-7,8-dihydrothiazolo[2′,3′:2,3]imidazo[4,5-c]-pyridin-6(5H)-yl)ethanone] showed an IC50 under setting [1] of 6 nM. The molecule `COc1ccc(C2c3c(nc4sc(C)nn34)CCN2C(=O)COc2ccc(NS(C)(=O)=O)nc2Cl)c(F)c1` (stereo not drawn) [Example 1.3.4, N-(6-chloro-5-(2-(5-(2-fluoro-4-methoxyphenyl)-2-methyl-7,8-dihydro-[1,3,4]thiadiazolo[2′,3′:2,3]imidazo[4,5-c]pyridin-6(5H)-yl)-2-oxoethoxy)pyridin-2-yl)methanesulfonamide] gave an IC50 under setting [1] of 8 nM. On to `Cc1nn2c3c(nc2s1)CCN(C(=O)COc1cccnc1F)C3c1ccc(C2CC2)cc1F` (stereo not drawn) [Example 1.6.5, 1-(5-(4-cyclopropyl-2-fluorophenyl)-2-methyl-7,8-dihydro-[1,3,4]thiadiazolo[2′,3′:2,3]imidazo[4,5-c]pyridin-6(5H)-yl)-2-((2-fluoropyridin-3-yl)oxy)ethanone], for which, under setting [1], it took 89 nM to reach half-maximal inhibition (IC50).

`Cc1nn2c3c(nc2s1)CCN(C(=O)COc1ccc(N2CCNCC2=O)nc1Cl)C3c1ccc(Cl)cc1F` (stereo not drawn) [Example 1.4.35, 1-(6-chloro-5-(2-(5-(4-chloro-2-fluorophenyl)-2-methyl-7,8-dihydro-[1,3,4]thiadiazolo[2′,3′:2,3]imidazo[4,5-c]pyridin-6(5H)-yl)-2-oxoethoxy)pyridin-2-yl)piperazin-2-one]: the IC50 under setting [2] worked out at 6 nM.
